In paper PMC8026785, “The pharmacokinetics of [^18F]UCB-H revisited in the healthy non-human primate brain” (EJNMMI Research, 2021):
Values joined by “and” are separate entries in the source; they are usually repeats but may differ in a detail not shown here. Equal values may be shown once.

Biological target: T1, SV2A (Macaca fascicularis, UniProt Q4R4X3)
T1 construct: The current study evaluates [^18F]UCB-H pharmacokinetics in healthy NHPs; from tissue; host or cells: brain of living healthy cynomolgus monkeys (in vivo PET)
Experiment: Brain PET kinetic modelling (1TCM, 2TCM, 2TCM-c, Logan), test-retest
Assay type: in vivo, cynomolgus monkeys (Macaca fascicularis)
Experimental: All four non-human primates (NHP) underwent a 2-h (2 h) test and retest PET scan; two NHP underwent an additional 4-h (4 h) retest PET scan. Three NHP underwent one 4-h (4 h) displacement PET scan. Arterial blood sampling was performed during test and retest scans with PET imaging spaced by at least 3 weeks between each scan. To this end, the femoral artery opposite to the saphenous vein used for radioligand injection was cannulated. For the 2-h (2 h) scans, we collected in total 28 blood samples of 1 mL: 16 samples during the first 5 min followed by […] every 5 min and […] every 10 min. For the 4 h scans, we collected an additional 6 samples every 20 min during the last two hours (34 samples in total). Larger samples (2 – 3 mL) were collected at 5, 15, 30, 60, 90, 120 min (2 h) and at 180, 240 min (4 h) for metabolite analysis. Displacement of [^18F]UCB-H was done by intravenous (IV) administration 90 min after [^18F]UCB-H injection of a bolus of 30 mg/kg LEV, or of 80 µg/kg (≈250 nmol/kg) or 5 mg/kg (≈15 µmol/kg) of cold [^19F]-UCB-H. Full experimental design of all NHP is outlined in Additional file 1: Table 1.
PET imaging was performed on the microPET FOCUS220 (Siemens) under standard anesthesia and monitoring procedures. Data acquisition started with the IV bolus injection of [^18F]UCB-H (32.9 ± 1.0 MBq/kg, 0.35 ± 0.07 µg/kg). Dynamic PET images were reconstructed using standard OSEM-2D algorithms while correcting for radioactive decay, scatter, attenuation and detectors inhomogeneity, which were measured prior to PET scanning using respectively ^57Co and ^68Ge external sources.
PET image analysis was performed using PMOD software version 3.8 (PMOD Technologies Ltd., Zurich, Suisse). After individual co-registration of PET-MR images, a cynomolgus atlas published by Ballanger and coworkers was normalized to PET images to extract time activity curves in different brain regions. Volumes of interest (VOI) were cerebral white matter (16.7 cm^3), striatum (0.24 cm^3), thalamus (0.89 cm^3), cerebellum (3.83 cm^3), frontal—(2.50 cm^3), parietal—(5.35 cm^3), and temporal (8.22 cm^3) cortex, and whole brain (72.2 cm^3) as a composite region of all regions in the atlas. [^18F]UCB-H pharmacokinetics were evaluated by analyzing the time activity curves of the test- and retest scans using 1- and 2-tissue compartment models (unconstrained and constrained with global K1/k2 coupled fit across all regions, further referred to as 2TCM and 2TCM-c), and Logan graphical analysis with a fixed t* at 60 min [33] using the arterial plasma input function corrected for radio-metabolites to derive the volume of distribution in each region. Percentage standard error (%SE) was estimated from the theoretical parameter covariance matrix. Only reliable estimates (%SE less than 25%) were included in the current analyses. For the three drug studies, percent displacement of the total activity in the whole brain was estimated relative to an average baseline constructed from the two 4 h baseline studies. Briefly, Standardized Uptake Value (SUV) time activity curves (TACs) were calculated for the two baseline and the three displacement studies. Then, each curve was normalized to the SUV at t = 90 min, corresponding to the timeframe immediately before the administration of the drugs in the displacement studies. Baseline curves were averaged and the percent displacement of total activity was calculated as (baseline-displacement)/baseline at a given time post drug administration (see “Results”).
Statistical analysis was performed using R software (version 3.3.1.). Plasma, intact parent fraction and time activity curves were statistically compared between subjects using a one-factor variance analysis. Absolute Test–Retest variability (aTRV) of PET quantification parameters was calculated as ABS(test—retest) / AVERAGE(test, retest). […]

[1] = Temporal Cortex, Retest, individual NHP
[2] = Temporal Cortex, Test, individual NHP
[3] = Thalamus, Retest, individual NHP

T1 sequence (Q4R4X3 whole entry): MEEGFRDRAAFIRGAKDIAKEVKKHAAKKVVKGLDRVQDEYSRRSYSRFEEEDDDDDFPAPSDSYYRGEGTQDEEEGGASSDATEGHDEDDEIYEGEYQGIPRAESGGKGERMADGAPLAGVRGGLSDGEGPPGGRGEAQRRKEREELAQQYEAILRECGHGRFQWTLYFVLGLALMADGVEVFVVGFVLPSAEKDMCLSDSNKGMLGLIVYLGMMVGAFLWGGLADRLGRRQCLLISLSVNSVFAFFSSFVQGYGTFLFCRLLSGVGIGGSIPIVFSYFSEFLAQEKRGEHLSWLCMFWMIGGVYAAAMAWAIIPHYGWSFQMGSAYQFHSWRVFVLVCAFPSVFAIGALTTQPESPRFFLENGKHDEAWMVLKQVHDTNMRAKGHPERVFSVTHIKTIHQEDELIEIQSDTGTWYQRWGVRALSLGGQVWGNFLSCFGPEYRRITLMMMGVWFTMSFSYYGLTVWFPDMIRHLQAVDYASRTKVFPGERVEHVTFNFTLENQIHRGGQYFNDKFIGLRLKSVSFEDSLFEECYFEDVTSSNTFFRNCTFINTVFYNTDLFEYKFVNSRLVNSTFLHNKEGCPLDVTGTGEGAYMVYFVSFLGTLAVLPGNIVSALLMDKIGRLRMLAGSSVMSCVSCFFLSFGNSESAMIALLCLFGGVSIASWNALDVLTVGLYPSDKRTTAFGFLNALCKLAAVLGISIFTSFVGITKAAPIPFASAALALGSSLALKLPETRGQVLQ

O=C1C[C@H](c2cc(F)c(F)c(F)c2)CN1Cc1ccncc1[18F] [[^18F]UCB-H]
VT (Logan (t* = 60)) (Striatum, Retest, mean): 15.7 mL/cm^3
k3/k4 (BPND) (2TCM-c) (Striatum, Retest, mean): 1.12
K1 (2TCM) (Striatum, Test, individual NHP): 0.24 ml/cm^3 /min and 0.25 ml/cm^3 /min and 0.51 ml/cm^3 /min and 0.63 ml/cm^3 /min
K1 (2TCM-c) (Striatum, Test, individual NHP): 0.24 ml/cm^3 /min and 0.26 ml/cm^3 /min and 0.53 ml/cm^3 /min and 0.63 ml/cm^3 /min
K1/k2 (2TCM) (Striatum, Test, individual NHP): 10.32 ml/cm^3 and 7.75 ml/cm^3 and 12.01 ml/cm^3 and 15.06 ml/cm^3
K1/k2 (2TCM-c) (Striatum, Test, individual NHP): 7.86 ml/cm^3 and 4.35 ml/cm^3 and 8.22 ml/cm^3 and 10.99 ml/cm^3
VT (1TCM) (Striatum, Test, individual NHP): 12.87 ml/cm^3 and 11.31 ml/cm^3 and 16.41 ml/cm^3 and 16.40 ml/cm^3
VT (2TCM) (Striatum, Test, individual NHP): 13.09 ml/cm^3 and 17.60 ml/cm^3
VT (2TCM-c) (Striatum, Test, individual NHP): 14.78 ml/cm^3 and 11.92 ml/cm^3 and 16.73 ml/cm^3 and 16.50 ml/cm^3
VT (Logan) (Striatum, Test, individual NHP): 15.21 ml/cm3 and 12.85 ml/cm3 and 17.23 ml/cm3 and 17.97 ml/cm3
k3/k4 (2TCM) (Striatum, Test, individual NHP): 0.69
k3/k4 (2TCM-c) (Striatum, Test, individual NHP): 1.74 and 1.24 and 0.50
VT (1TCM) (Striatum, Test, mean): 14.2 mL/cm^3
VT (2TCM) (Striatum, Test, mean): 15.3 mL/cm^3
VT (2TCM-c) (Striatum, Test, mean): 15.0 mL/cm^3
VT (Logan (t* = 60)) (Striatum, Test, mean): 15.8 mL/cm^3
k3/k4 (BPND) (2TCM-c) (Striatum, Test, mean): 1.16
K1 (2TCM) [1]: 0.31 ml/cm^3 /min and 0.45 ml/cm^3 /min and 0.29 ml/cm^3 /min and 0.36 ml/cm^3 /min
K1 (2TCM-c) [1]: 0.32 ml/cm^3 /min and 0.48 ml/cm^3 /min and 0.30 ml/cm^3 /min and 0.36 ml/cm^3 /min
K1/k2 (2TCM) [1]: 11.50 ml/cm^3 and 9.63 ml/cm^3 and 11.78 ml/cm^3
K1/k2 (2TCM-c) [1]: 7.25 ml/cm^3 and 4.64 ml/cm^3 and 9.07 ml/cm^3 and 10.70 ml/cm^3
VT (1TCM) [1]: 11.57 ml/cm^3 and 13.96 ml/cm^3 and 13.50 ml/cm^3 and 13.13 ml/cm^3
VT (2TCM) [1]: 13.97 ml/cm^3 and 13.95 ml/cm^3
VT (2TCM-c) [1]: 11.57 ml/cm^3 and 14.06 ml/cm^3 and 13.53 ml/cm^3
VT (Logan) [1]: 11.91 ml/cm3 and 13.90 ml/cm3 and 16.34 ml/cm3 and 13.54 ml/cm3
k3/k4 (2TCM-c) [1]: 0.60 and 2.03 and 0.29
K1 (2TCM) [2]: 0.17 ml/cm^3 /min and 0.23 ml/cm^3 /min and 0.37 ml/cm^3 /min and 0.44 ml/cm^3 /min
K1 (2TCM-c) [2]: 0.17 ml/cm^3 /min and 0.24 ml/cm^3 /min and 0.37 ml/cm^3 /min and 0.44 ml/cm^3 /min
K1/k2 (2TCM) [2]: 11.10 ml/cm^3 and 7.16 ml/cm^3 and 8.97 ml/cm^3 and 12.30 ml/cm^3
K1/k2 (2TCM-c) [2]: 7.86 ml/cm^3 and 4.35 ml/cm^3 and 8.22 ml/cm^3 and 10.99 ml/cm^3
VT (1TCM) [2]: 12.66 ml/cm^3 and 10.58 ml/cm^3 and 14.25 ml/cm^3 and 13.95 ml/cm^3
VT (2TCM) [2]: 12.30 ml/cm^3 and 15.50 ml/cm^3
VT (2TCM-c) [2]: 17.46 ml/cm^3 and 11.23 ml/cm^3 and 14.95 ml/cm^3 and 15.47 ml/cm^3
VT (Logan) [2]: 14.13 ml/cm3 and 11.99 ml/cm3 and 15.12 ml/cm3 and 15.35 ml/cm3
k3/k4 (2TCM) [2]: 0.72
k3/k4 (2TCM-c) [2]: 1.00 and 1.58 and 0.41
ICC of Logan (t* = 60) VT (Temporal cortex): 0.61
aTRV of 2TCM-c VT (Temporal cortex): 25%
aTRV of Logan (t* = 60) VT (Temporal cortex): 13%
VT (1TCM) (Temporal cortex, Retest, mean): 13.0 mL/cm^3
VT (2TCM) (Temporal cortex, Retest, mean): 14.0 mL/cm^3
VT (2TCM-c) (Temporal cortex, Retest, mean): 13.1 mL/cm^3
VT (Logan (t* = 60)) (Temporal cortex, Retest, mean): 13.9 mL/cm^3
k3/k4 (BPND) (2TCM-c) (Temporal cortex, Retest, mean): 0.97
VT (1TCM) (Temporal cortex, Test, mean): 12.9 mL/cm^3
VT (2TCM) (Temporal cortex, Test, mean): 13.9 mL/cm^3
VT (2TCM-c) (Temporal cortex, Test, mean): 14.8 mL/cm^3
VT (Logan (t* = 60)) (Temporal cortex, Test, mean): 14.1 mL/cm^3
k3/k4 (BPND) (2TCM-c) (Temporal cortex, Test, mean): 1.00
ICC of Logan (t* = 60) VT (Thalamus): 0.61
aTRV of 2TCM-c VT (Thalamus): 18%
aTRV of Logan (t* = 60) VT (Thalamus): 12%
K1 (2TCM) [3]: 0.36 ml/cm^3 /min and 0.51 ml/cm^3 /min and 0.34 ml/cm^3 /min and 0.38 ml/cm^3 /min
K1 (2TCM-c) [3]: 0.37 ml/cm^3 /min and 0.54 ml/cm^3 /min and 0.36 ml/cm^3 /min and 0.38 ml/cm^3 /min
K1/k2 (2TCM) [3]: 12.79 ml/cm^3 and 11.34 ml/cm^3 and 12.88 ml/cm^3
K1/k2 (2TCM-c) [3]: 7.25 ml/cm^3 and 4.64 ml/cm^3 and 9.07 ml/cm^3 and 10.70 ml/cm^3
VT (1TCM) [3]: 11.85 ml/cm^3 and 13.85 ml/cm^3 and 14.73 ml/cm^3 and 13.28 ml/cm^3
VT (2TCM) [3]: 11.88 ml/cm^3 and 14.03 ml/cm^3
VT (2TCM-c) [3]: 11.88 ml/cm^3 and 13.92 ml/cm^3 and 17.03 ml/cm^3 and 13.98 ml/cm^3
VT (Logan) [3]: 12.16 ml/cm3 and 14.10 ml/cm3 and 17.41 ml/cm3 and 13.62 ml/cm3
